Like-named read-outs stand apart in the source and are kept apart here.
Legend:
[1] = system: TNFα-Stimulated NO2^− Production in EOC-20 Cells; test: TNFα-stimulated nitrite (NO2−) production in EOC-20 microglial cells, Griess assay; assay type: cell-based, mouse
Procedure: Cells were cultured in 24 well plates until confluent then treated with test agent, which was dissolved at 100× final concentration in dimethylsulfoxide (DMSO), or with vehicle only. Thirty minutes after treatment with test agent, cells were treated with 10 ng/mL recombinant mouse TNFα (Pharmingen, San Diego, Calif. USA). […] Each compound was tested at 100 μM, 20 μM, 4 μM, 0.8 μM and 0 μM in the presence of TNFα. Four wells of cells were used for each concentration of test agent.
(§1) Lower IC50 values indicate improved efficacy. FIG. 2 illustrates the principle of the measurement using NDGA as an example test agent. In order to determine viability, cell culture medium was replaced with phenol-free DMEM (Gibco) containing 20 μL/mL of MTT viability reagent (Promega). […] Control cells were taken to indicate 100% viability and intermediate values of MTT reduction were scaled to percentage of control. For each compound, an LD50 value was determined by extrapolation through sublethal concentrations. This value represents the concentration that reduced the MTT viability parameter by 50%.

[2] = system: EOC-20 cells
Procedure: as §1

[3] = Table III, MTT viability, by extrapolation through sublethal concentrations
[4] = Table III, 10 ng/mL TNFα, 24 hr, by interpolation, read-out: IC50
[5] = Mus musculus, 24 h, Table III, 10 ng/mL TNFα, 24 hr, by interpolation, read-out: IC50
[6] = Table III, 10 ng/mL TNFα, 24 hr, by interpolation
[7] = Mus musculus, Table III, 10 ng/mL TNFα, 24 hr, by interpolation, read-out: IC50
[8] = Mus musculus, Table V, read-out: IC50
[9] = Mus musculus, Table V, * obtained by linear extrapolation from points ≦100 μM, read-out: IC50
[10] = Table V, * obtained by linear extrapolation from points ≦100 μM

Work on `CCOc1ccc(CC(C)C(C)Cc2ccc(OCC)c(OCC)c2)cc1OCC` (centres unmarked) [Tetra-ethyl ether of NDGA (synthetic), Tetra-ethyl ether of NDGA] yielded an IC50 ([1]; read-out: IC50) of 0.8 µM.

In the case of `O=c1cc(-c2ccccc2)oc2cc(O)ccc12` [7-OH-flavone, 7-OH-flavone], the LD50 [2, 3] is reported as 125 μm and the IC50 [1, 4] is reported as 65 µM.

`O=C(/C=C/c1ccc(O)c(O)c1)c1ccc(O)cc1O` [butein (2′,4′,3,4-tetrahydroxychalcone), 2′,4′,3,4-tetrahydroxychalcone] showed an LD50 ([2]; mouse) of 77 μm and an IC50 [1, 5] of 5.1 µM.

`COc1cccc2c1cc([N+](=O)[O-])c1c(C(=O)O)cc3c(c12)OCO3` [Aristolochic acid] gave an LD50 ([2]; Table V) of 100 µM and an IC50 ([1]; Mus musculus) of 29 µM.

In the case of `COC1=C(OC)C(=O)C(C/C=C(\C)CC/C=C(\C)CC/C=C(\C)CC/C=C(\C)CC/C=C(\C)CC/C=C(\C)CC/C=C(\C)CC/C=C(\C)CC/C=C(\C)CCC=C(C)C)=C(C)C1=O` [coenzyme O], the LD50 [2] is reported as “nontoxic” and the IC50 [1, 6] is reported as “Inactive”.

For `COc1cc(O)c2c(=O)c(-c3ccc(O)cc3)coc2c1` [4′,5-dihydroxy-7-methoxy-isoflavone], the LD50 [2, 3] was “nontoxic” and the IC50 [1, 7] was 120 µM.

`S=C(S)N1CCCC1` [pyrollidine dithiocarbamate (PDTC), pyrollidine dithiocarbamate] gave an LD50 [2, 3] of 90 μm and an IC50 [1, 4] of 51 µM.

In the case of `COc1cc(/C=C/C(=O)CC(=O)/C=C/c2ccc(OC(C)=O)c(OC)c2)ccc1OC(C)=O` [curcumin diacetyl ester], the LD50 ([2]; Table V) is reported as “Nontoxic” and the IC50 ([1]; Table V, read-out: IC50) is reported as 14 µM.

Work on `C[C@H](Cc1ccc(O)c(O)c1)[C@@H](C)Cc1ccc(O)c(O)c1` [NDGA (natural), nordihydroguaiaretic acid] yielded an IC50 [1, 5] of 3.1 µM and an IC50 [1, 8] of 3 µM.

`CC(c1cc2ccccc2s1)N(O)C(N)=O` (centres unmarked) [Zileuton] was tested, and the LD50 [2] was “Nontoxic”, the “activity against TNFα-stimulated nitrite production” value (from here on “activity”) [1] was “approximately as effective as minocycline” and the IC50 [1, 9] was 105 µM.

`O=c1cc(-c2ccc(O)cc2)oc2cc(O)cc(O)c12` [4′,5,7-trihydroxy-flavone (apigenin), 4′,5,7-trihydroxy-flavone] gave an LD50 [2, 3] of 87 μm and an IC50 [1, 5] of 55 µM.

Molecule `COc1ccc(-c2coc3cc(O)ccc3c2=O)cc1` has an LD50 ([2]; mouse) of 126 μm and an IC50 [1, 5] of 106 µM.

`O=c1cc(-c2ccccc2)oc2ccccc12` [Flavone] gave an LD50 [2, 3] of 7 μm and an IC50 [1, 5] of 60 µM.

For `c1ccc2c(c1)ccc1c3ccccc3ccc21` [Chrysene], the LD50 [2, 3] was “nontoxic” and the IC50 [1, 6] was “Inactive”.

`Cc1c(C)c2c(c(C)c1O)CC[C@@](C)(CCC[C@H](C)CCC[C@H](C)CCCC(C)C)O2` [alpha tocopherol] was tested, and the LD50 [2] was “nontoxic” and the IC50 [1, 6] was “Inactive”.

With `CC(C)c1ccc2c(c1)c(SC(C)(C)C)c(CC(C)(C)C(=O)O)n2Cc1ccc(Cl)cc1` [MK-886] the LD50 [2] was 40 µM and the IC50 ([1]; Table V, read-out: IC50) was 41 µM.

`C(=C\c1ccccc1)/c1ccccc1` [Trans-stilbene, Trans- stilbene] was tested, and the LD50 [2] was “nontoxic” and the IC50 [1, 6] was “Inactive”.

`CN(C)[C@@H]1C(O)=C(C(N)=O)C(=O)[C@@]2(O)C(O)=C3C(=O)c4c(O)cccc4[C@@](C)(O)[C@H]3C[C@@H]12` [Tetracycline] was tested, and the LD50 [2] was “nontoxic” and the IC50 [1, 7] was 85 µM.

In the case of `O=c1c(O)c(-c2ccccc2)oc2ccccc12` [3-OH-flavone], the LD50 [2] is reported as 125 μm and the IC50 [1, 4] is reported as 70 µM.

`CS(=O)(=O)Nc1ccc([N+](=O)[O-])cc1OC1CCCCC1` [NS-398] was tested, and the LD50 [2, 10] was 129* μM, the “activity” value [1] was “essentially inactive” and the IC50 [1, 9] was 108 µM.

Work on `N#CC(C#N)=Cc1ccc([N+](=O)[O-])c(O)c1` [Tyrphostin AG126] yielded an LD50 [2, 3] of 150 μm and an IC50 [1, 4] of 18 µM.

Molecule `COc1ccc(-c2coc3cc(O)cc(O)c3c2=O)cc1` [4′-methoxy-5,7-dihydroxyisoflavone] has an LD50 ([2]; mouse) of 112 μm and an IC50 [1, 5] of 49 µM.

With `CN(C)c1ccc(O)c2c1C[C@H]1C[C@H]3[C@H](N(C)C)C(O)=C(C(N)=O)C(=O)[C@@]3(O)C(O)=C1C2=O` [Minocycline] the IC50 [1, 5] was 49 µM.

`CC(C)Cc1ccc(C(C)C(=O)O)cc1` (centres unmarked) [Ibuprofen] was tested, and the “activity” value [1] was “weak activity”, the IC50 [1, 6] was “Inactive” and the IC50 ([1]; Table V) was “Inactive”.

`CC(C)(C)[N+]([O-])=Cc1ccc(O)cc1` [4-OH-PBN] was tested, and the LD50 [2, 3] was “nontoxic” and the IC50 [1, 6] was “Inactive”.

`CC(=O)Oc1ccc(CC(C)C(C)Cc2ccc(OC(C)=O)c(OC(C)=O)c2)cc1OC(C)=O` (centres unmarked) [NDGA tetraacetyl ester] was tested, and the LD50 ([2]; Table V) was “Nontoxic” and the IC50 ([1]; Table V, read-out: IC50) was 5 µM.

`O=c1oc2c(O)c(O)cc3c(=O)oc4c(O)c(O)cc1c4c23` [Ellagic acid] was tested, and the LD50 [2] was “nontoxic” and the IC50 [1, 5] was 110 µM.

`O=c1c(O)c(-c2ccccc2)oc2cc(O)cc(O)c12` [3,5,7-trihydroxy-flavone (galangin), 3,5,7-trihydroxy-flavone] showed an LD50 ([2]; mouse) of 58 μm and an IC50 [1, 5] of 41 µM.

`C[C@@H]1C(=O)O[C@H]2C[C@@]34[C@H]5C[C@@H](C(C)(C)C)[C@]36[C@@H](OC(=O)[C@@H]6O)O[C@@]4(C(=O)O5)[C@]21O` [gingkolide A] was tested, and the LD50 [2, 3] was “nontoxic” and the IC50 [1, 6] was “Inactive”.

In the case of `Oc1ccc(C#CC/C=C/c2ccc(O)c(O)c2)cc1O` [rooperol], the “cytotoxicity” value [2] is reported as “nontoxic” and the IC50 ([1]; read-out: IC50) is reported as 25 µM.

`CC(C)(C)[N+]([O-])=Cc1ccccc1O` [2-OH-PBN] was tested, and the LD50 [2, 3] was “nontoxic” and the IC50 [1, 6] was “Inactive”.

`O=C(O)CCCC[C@@H]1CCSS1` (racemic) [Lipoic acid] was tested, and the IC50 [1, 6] was “Inactive”.

`C[C@@H]1C(=O)O[C@H]2[C@@H](O)[C@@]34[C@H]5C[C@@H](C(C)(C)C)[C@]36[C@@H](OC(=O)[C@@H]6O)O[C@@]4(C(=O)O5)[C@@]12O` [gingkolide B] was tested, and the LD50 [2, 3] was “nontoxic” and the IC50 [1, 6] was “Inactive”.

In the case of `c1cc2c(cc1[C@H]1OC[C@H]3[C@@H]1CO[C@@H]3c1ccc3c(c1)OCO3)OCO2` [Sesamin, sesamin], the LD50 ([2]; Table V) is reported as “Nontoxic” and the IC50 [1, 8] is reported as 42 µM.

`COc1ccc2c(c1)c(CC(=O)O)c(C)n2C(=O)c1ccc(Cl)cc1` [Indomethacin] was tested, and the LD50 [2, 3] was 124 μm, the LD50 [2, 10] was 124* μM and the “activity” value [1] was “weak activity”. The IC50 [1, 5] was 61 µM and the IC50 [1, 8] was 61 µM.

With `O=c1c(-c2ccc(O)cc2)coc2cc(O)cc(O)c12` [4′,5,7-trihydroxy-isoflavone (genistein), 4′,5,7-trihydroxy-isoflavone] the LD50 [2, 3] was “nontoxic” and the IC50 [1, 5] was 46 µM.

With `COc1ccc(/C=C/c2cc(O)cc(O[C@@H]3O[C@H](CO)[C@@H](O)[C@H](O)[C@H]3O)c2)cc1O` [Rhapontin (natural, rhubarb), Rhapontin] the LD50 [2] was “nontoxic” and the IC50 [1, 6] was “Inactive”.

`O=C(/C=C/c1ccc(O)c(O)c1)O[C@H](Cc1ccc(O)c(O)c1)C(=O)O` [Rosemarinic acid] was tested, and the LD50 [2] was “nontoxic” and the IC50 [1, 5] was 139 µM.

With `N#CC(C#N)=C(N)/C(C#N)=C/c1cc(O)c(O)c(O)c1` [Tyrphostin 51] the LD50 [2, 3] was “nontoxic” and the IC50 [1, 6] was “Inactive”.

Work on `C[C@H](Cc1ccc(O)c(O)c1)[C@@H](C)Cc1ccc(O)c(O)c1` [NDGA (synthetic), nordihydroguaiaretic acid] yielded an IC50 [1, 4] of 4 µM and an IC50 ([1]; Table V, read-out: IC50) of 4 µM.

In the case of `C[S+]([O-])c1ccc(-c2nc(-c3ccncc3)c(-c3ccc(F)cc3)[nH]2)cc1` (centres unmarked) [SB203580], the LD50 [2, 3] is reported as 100 μm.

Molecule `CN(C)[C@@H]1C(O)=C(C(N)=O)C(=O)[C@@]2(O)C(O)=C3C(=O)c4c(O)cccc4[C@@](C)(O)[C@H]3[C@H](O)[C@@H]12` [Oxyletracycline] has an IC50 [1, 4] of 64 µM.

With `CS(=O)(=O)Nc1ccc([N+](=O)[O-])cc1Oc1ccccc1` [Nimesulide] the IC50 [1, 8] was 20 µM.
